Values quoted from earlier work in patent US20240245793A1, “PSD-95 INHIBITORS AND USES THEREOF” (priority 2021, published 2024).
Like-named read-outs stand apart in the source and are kept apart here. No end group written: not given here.

Assays:
pMCAO mice = settings: cited from earlier work; for neuroprotective properties: mice, pMCAO, same experimental conditions and dose (3 nmol/g)
PDZ1 and PDZ2 of PSD-95 = settings: in vitro FP assay; read-out: Ki values towards PDZ1 and PDZ2 of PSD-95; cited from earlier work
[1] = system: patients with ischemic stroke undergoing endovascular thrombectomy; settings: cited from earlier work
plasmin = molecular target: T1, plasmin (Homo sapiens, UniProt P00747); settings: plasmin generated by tPA; cited from earlier work
T1 construct: Tissue plasminogen factor (tPA), which generates plasmin from plasminogen
T1 sequence (P00747 581-810 limits assumed, species assumed): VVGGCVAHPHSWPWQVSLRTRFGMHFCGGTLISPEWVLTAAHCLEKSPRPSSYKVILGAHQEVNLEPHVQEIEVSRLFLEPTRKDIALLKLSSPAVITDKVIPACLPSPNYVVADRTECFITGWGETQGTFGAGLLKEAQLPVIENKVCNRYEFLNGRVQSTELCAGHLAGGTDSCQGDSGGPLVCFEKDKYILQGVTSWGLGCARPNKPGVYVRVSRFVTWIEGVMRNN
T1 sequence (P00747 97-580 partner limits assumed, species assumed): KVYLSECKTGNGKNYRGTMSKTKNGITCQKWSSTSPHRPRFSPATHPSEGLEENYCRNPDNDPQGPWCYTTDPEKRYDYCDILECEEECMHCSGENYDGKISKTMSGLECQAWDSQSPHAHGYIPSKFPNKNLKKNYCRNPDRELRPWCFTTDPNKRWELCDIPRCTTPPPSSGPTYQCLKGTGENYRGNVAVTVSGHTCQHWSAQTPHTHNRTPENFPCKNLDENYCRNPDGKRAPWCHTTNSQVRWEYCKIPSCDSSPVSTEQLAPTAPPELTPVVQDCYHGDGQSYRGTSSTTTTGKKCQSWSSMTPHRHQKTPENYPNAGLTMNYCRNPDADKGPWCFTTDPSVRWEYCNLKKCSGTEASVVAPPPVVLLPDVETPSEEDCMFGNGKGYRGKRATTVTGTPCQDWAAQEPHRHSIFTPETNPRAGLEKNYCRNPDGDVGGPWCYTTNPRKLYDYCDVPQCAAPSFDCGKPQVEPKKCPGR

Row | Molecule | neuroprotective properties (pMCAO mice) | reaching the brain (pMCAO mice; mouse, in vivo) | Ki (PDZ1 and PDZ2 of PSD-95) [µM] | clinical effect ([1]; group not receiving alteplase) | clinical effect ([1]; patients receiving alteplase) | cleavage by plasmin (plasmin)
1 | CC[C@H](C)[C@H](NC(=O)CCOCCOCCOCCOCCOCCC(=O)N[C@H](C(=O)N[C@@H](CCC(=O)O)C(=O)N[C@H](C(=O)N[C@@H](CC(=O)O)C(=O)N[C@H](C(=O)O)C(C)C)[C@@H](C)O)[C@@H](C)CC)C(=O)N[C@@H](CCC(=O)O)C(=O)N[C@H](C(=O)N[C@@H](CC(=O)O)C(=O)N[C@H](C(=O)O)C(C)C)[C@@H](C)O [Compound 1, OPEG4-(IETDV)2] | showed no neuroprotective properties | did not reach the brain | – | – | – | –
2 | YGRKKRRQRRRKLSSIESDV [nerinetide] | did not show significant neuroprotective properties | – | 5 to 10 | improved functional outcomes, reduced mortality, and reduced infarction volumes | not effective | cleaves nerinetide
